Reference: PMC10666288, “Unveiling the Catalytic Mechanism of a Processive Metalloaminopeptidase” (Biochemistry, 2023)
Where two headings read alike, the source gives them in different places.

Legend:
Type in all cases: biochemical
Parameters in all cases: GG stays after cleavage) (N); made in house; host or cells: E. coli BL21(DE3)
PaPepA [1] = target: T1, PaPepA (Pseudomonas aeruginosa, UniProt Q02RY8); conditions: aa-pNA varied, 3 mM MnCl2, 100 nM PaPepA, pH 8.0, 25 °C
Procedure: (§1) A BMG Labtech POLARstar Omega plate reader was used for activity assays and kinetic studies involving amino acids conjugated to para-nitroaniline (pNA) (Sigma) or peptides as substrates. Assays were carried out at 25 °C in clear half-area 96-well plates (Greiner Bio-One). […] For kinetic assays investigating Leu-AMC as a substrate, a SpectraMax M2E was used. Reactions were carried out using black half-area 96-well plates with clear bottoms (Greiner Bio-One). Product formation was assessed by monitoring changes in fluorescence, with the excitation wavelength set at 341 nm and emission at 441 nm. The cutoff was 420 nm. PMT gain was set to medium, with six flashes per read. […] Calibration curves of pNA concentration vs absorbance and AMC vs fluorescence were constructed, and initial rate values were divided by the slope of these calibration curves to reveal the rate of product formation over time (Table S2).
(§2) For all assays excluding pH dependence curves, buffer conditions were as follows: 100 mM HEPES, 50 mM KCl, and pH 8.0. For assays carried out under pseudo-first-order conditions, one reaction component was fixed and in excess, while the other was varied. […] For assays involving variation of aa-pNA or aa-AMC, MnCl2 was added to a final concentration of 3 mM.

PaPepA [2] = target: T1, PaPepA; assay: Metal activation of Leu-pNA cleavage (metal varied, Leu-pNA fixed); conditions: with 2 mM Leu-pNA, pH 8.0
Procedure: as §1, §2

PaPepA [3] = target: T1, PaPepA; conditions: labelled component varied
Excerpt: Viscosity effects were studied by using sucrose as a viscogen. Relative viscosities for different concentrations of sucrose were taken from Bazelyansky et al.[27] Concentrations of viscogen were as follows: 14% sucrose, ηrel = 1.5; 24% sucrose, ηrel = 2.2; and 32% sucrose, ηrel = 2.9.
Viscosity effects were fit to the following equation, where kinetic parameter0 and kinetic parameterη are kcat or kcat/KM in the […] of viscogen, respectively, ηrel is the relative viscosity of the solution, and m is the slope. [drawing 4] 4
All measurements were performed in triplicate.

PaPepA [4] = target: T1, PaPepA; conditions: 5 % PEG 8000, labelled component varied, other saturating; in 1/s
PaPepA [5] = target: T1, PaPepA; assay: Pre-steady-state stopped-flow kinetics with global fit; conditions: global fit
Procedure: An Applied Photophysics SX20 stopped-flow spectrofluorimeter was used to perform kinetic measurements under pre-steady-state conditions. The instrument was equipped with a xenon lamp, a 5 μL mixing cell, and a circulating water bath to maintain constant temperature. All reactions were carried out in 100 mM HEPES (pH 8.0) and 50 mM KCl at 25 °C. Enzyme and metal ions were kept in one syringe, while the other substrate (Leu-pNA or Leu-AMC) was kept in the second syringe. The reaction was triggered by rapid mixing of 55 μL from each syringe. Three traces with 10,000 points per trace were collected per experiment.
For absorbance measurements, product formation was monitored by reading the pNA absorbance at 405 nm (5 mm path length). Multiple turnover rates were measured in the presence of saturating concentrations of both metal and Leu-pNA. PaPepA was present at 1 or 10 μM, MnCl2 was present at 3 mM, and Leu-pNA was present at 250 μM. For fluorescence measurements, a path length of 1 mm was used. Reactions were followed by monitoring the appearance of a 7-amino-4-methylcoumarin (AMC) fluorophore following PaPepA-catalyzed breakdown of Leu-AMC. An excitation wavelength of 341 nm was used with a 400 nm cutoff filter for the emission. Slits were 1 nm for excitation and 2 nm for emission.
Experiments under single turnover conditions monitored fluorescence change with a detector voltage of 300 V, 0.1 μM Leu-AMC, 1.5 mM MnCl2, and varying PaPepA (0.5, 1, 2, 4, 8, 16, or 32 μM). Experiments under multiple turnover conditions monitored fluorescence change with a detector voltage of 250 V, 50 μM Leu-AMC, 1.2 μM PaPepA and varying concentrations of MnCl2 (0.2, 0.4, 0.6, 1.2, 2.4, 6, 9, 12, 18, 24, 60, 120, 1200, or 3600 μM).
Calibration curves of known concentrations of AMC were performed at detector voltages of 250 and 300 V. STO and MTO curves were divided by the slope of these calibration curves to convert the change in fluorescence observed to the concentration of AMC produced.
Pre-steady-state data were imported into KinTek Global Explorer and fit to linear or single-exponential equations using the aFit function to obtain standard deviation estimates. A kinetic model with five steps was considered, and rate constants and outputs were fitted according to this model. Initial estimates for rate constants were based on kcat and KM values. The FitSpace Editor was employed to determine confidence intervals for each of the rate constants. More details including model fitted and parameters used are available in the Supporting Information.
Supporting information note 4: Kintek Global Explorer fitting of stopped flow data Both MTO and STO pre-steady-state data were fit according to the mode described in Figure 4A with scaling factors for each fluorescent species (EP and P) to account for differences in AMC fluorescence whilst in complex with PaPepA versus free in solution. Scaling factors were different across STO and MTO experiments as both were carried out using different detector voltages.
The model that best fitted acquired data was as below, where F is metal free enzyme, E1 is PaPepA with one Mn2+ ion, E is PepA with two Mn2+ ions, S is Leu- […]
For fitting, k1 and k-1 ratios were constrained (linked) based KD for Mn2+ binding as measured by ITC (12nM). Initially, k2 and k-2 were allowed to vary without constraints, and values best fitted as well as Fitspace lower and upper boundaries are reported in Table 2. The value for k1 was best fitted as diffusion limited, and therefore was fixed in further fitting cycles. The best fitted value for k-2 was high and unconstrained, and therefore also fixed at 1000 s-1 for further fitting cycles. k3, k-3, k4, and k5 were not constrained. Multiple iterations of fitting were performed, and best fit values recorded. k1, k2, k3, k-3, k4, and k5 were evaluated using FitSpace Explorer to generate confidence intervals for each of these rate constants. […]

PaPepA [6] = target: T1, PaPepA; assay: Alcohol dehydrogenase peptide degradation assay (LC-MS); conditions: MassPREP ADH digest, 100 nM PaPepA, 3 mM MnCl2, overnight
Procedure: A vial of MassPREP ADH digestion standard (Waters) was reconstituted in 200 μL of LC-MS grade water. Reaction mixtures were prepared by combining 25 μL of ADH solution, 3 mM MnCl2, and 100 nM PaPepA (final concentrations) in a total volume of 50 μL buffer (100 mM HEPES pH 8.0, 50 mM KCl). For control reactions, the addition of PaPepA was omitted. Samples and controls were each prepared in triplicate and incubated overnight, and reactions quenched with the addition of […] of 10% TCA. Following the addition of acid, PaPepA was added to control samples to a final concentration of 50 nM (equivalent to a concentration of enzyme in the reaction samples following acid quenching). Samples were concentrated to 20 μL. A 1 μL portion of this was diluted in 100 μL of LC-MS grade water. 10 μL was injected and analyzed on a SCIEX TripleTOF 5600+ mass spectrometer with an Eksigent 425 nanoLC configured in trap elute configuration. Each sample was loaded onto the trap (Waters ACQUITY M-Class symmetry column 180 μm × 20 mm) and washed with 0.05% TFA in water for 5 min at 5 μL/min. The trap was then switched in line with the Waters M-Class HSS1 analytical column, 75 μm × 150 mm, with a flow rate of 300 nL/min. Samples were eluted over 30 min using a linear gradient from 98% A (100% water 0.1% FA) 2% B (80% MeCN, […] 0.1% FA) to 60% A, 40% B linearly over 12 min, rising to 5% A, 95% B, before returning to 98% A to re-equilibrate. Eluate from the column was sprayed directly into the nanospray source of the mass spectrometer. MS data were collected from 400 to 1250 m/z as the survey scan, and under data-dependent acquisition (DDA) setting, the top 20 strongest peptides were selected for MS/MS using CID fragmentation. Peptide mass tolerance was 20 ppm on the MS and 0.1 Da on the MS/MS.
Identification and analysis of ADH peptides were performed using the Skyline open-access software package (version 22.2). Raw data were extracted using msConvert (ProteoWizard) and the data searched using Skyline against the ADH1 sequence from Saccharomyces cerevisiae (UniProt: P00330). The digestion enzyme was set as trypsin, allowing up to three missed cleavages. Searches encompassed peptides between 400 and 1250 m/z with a mass tolerance of 0.3 m/z. Carbamidomethyl was set as a fixed modification for cysteine residues. Data were searched for the protonated 1+, 2+, and 3+ charge states of each peptide.
Peaks were integrated, and areas were used to qualitatively assess differences in peptide abundances across PaPepA-digested samples and controls. Peptides present in control samples but absent in reactions (integrated area <1000) were classified as “digested”.

T1 sequence (Q02RY8 whole entry): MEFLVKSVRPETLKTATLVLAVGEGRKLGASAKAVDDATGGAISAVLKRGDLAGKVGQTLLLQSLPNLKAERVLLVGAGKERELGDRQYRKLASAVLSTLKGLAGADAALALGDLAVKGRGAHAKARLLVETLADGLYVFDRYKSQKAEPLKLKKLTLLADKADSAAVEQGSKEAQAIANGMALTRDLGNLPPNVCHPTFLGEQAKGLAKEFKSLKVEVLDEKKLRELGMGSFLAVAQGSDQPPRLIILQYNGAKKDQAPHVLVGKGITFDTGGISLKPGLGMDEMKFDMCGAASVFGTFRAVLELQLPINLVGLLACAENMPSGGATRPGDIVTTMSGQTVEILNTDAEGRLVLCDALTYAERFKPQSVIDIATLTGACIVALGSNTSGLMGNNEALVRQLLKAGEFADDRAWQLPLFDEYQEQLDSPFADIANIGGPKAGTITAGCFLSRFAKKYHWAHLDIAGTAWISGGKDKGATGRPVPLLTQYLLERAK

In the case of `O=C(Nc1ccc([N+](=O)[O-])cc1)[C@@H]1CCCN1` [Pro-pNA], the kcat (PaPepA [1]) is reported as 0.081 ± 0.003 s^–1 and the Km (PaPepA [1]; read-out: KM) is reported as 1200 ± 80 µM.
`[Co+2]` [Co^2+] was tested, and the KACT (PaPepA [2]) was 0.17 ± 0.01 mM, the kcat (PaPepA [2]) was 0.137 ± 0.002 s^–1 and the kcat/KACT (PaPepA [2]) was 0.80 ± 0.06 s^–1mM^–1.
Compound `CCC(C)[C@H](N)C(=O)Nc1ccc([N+](=O)[O-])cc1` (some centres unmarked) [Ile-pNA] has a Km (PaPepA [1]) of 100 ± 30 µM and a kcat (PaPepA [1]) of 0.004 ± 0.000 s^–1.
`[Ni+2]` [Ni^2+] was tested, and the KACT (PaPepA [2]) was 2.5 ± 0.4 mM, the kcat (PaPepA [2]) was 0.077 ± 0.003 s^–1 and the kcat/KACT (PaPepA [2]) was 0.032 ± 0.005 s^–1mM^–1.
In the case of `N[C@@H](Cc1ccccc1)C(=O)Nc1ccc([N+](=O)[O-])cc1` [Phe-pNA], the Km (PaPepA [1]) is reported as 260 ± 50 µM and the kcat (PaPepA [1]) is reported as 0.115 ± 0.008 s^–1.
For `CC(C)C[C@H](N)C(=O)Nc1ccc([N+](=O)[O-])cc1` [Leu-pNA, reference compound], the kcat (PaPepA [3]; H2O (0% PEG-8000), other saturating, in 1/s) was 0.335 ± 0.004, the “Slope (sucrose) on kcat” value (PaPepA [3]; sucrose as viscogen) was 0.03 ± 0.01 and the kcat (PaPepA [4]) was 0.391 ± 0.008. The Km (PaPepA [1]) was 160 ± 10 µM and the kcat (PaPepA [1]) was 0.254 ± 0.005 s^–1.
Compound `[Fe+2]` [Fe^2+] has a KACT (PaPepA [2]) of over 10 mM and a kcat (PaPepA [2]) of 0.012 ± 0.003 s^–1.
Work on `CC(C)[C@H](N)C(=O)Nc1ccc([N+](=O)[O-])cc1` [Val-pNA] yielded a Km (PaPepA [1]) of 50 ± 40 µM and a kcat (PaPepA [1]) of 0.002 ± 0.001 s^–1.
In the case of `Cc1cc(=O)oc2cc(NC(=O)[C@H](N)CC(C)C)ccc12` [Leu-AMC], the “k3, best-fitted value” (PaPepA [5]; E + S = ES, S is Leu-AMC) is reported as 2.3 ± 0.1 μM^–1 s^–1, the “k-3, best-fitted value” (PaPepA [5]; E + S = ES, reverse, S is Leu-AMC) is reported as 47.9 ± 0.6 s^–1 and the “k5, best-fitted value” (PaPepA [5]; EP = E + P) is reported as 13.4 ± 0.1 s^–1. The “k4, best-fitted value” (PaPepA [5]; ES = EP) was 6.3 ± 0.1 s^–1.
“YSGVC[+57.0]HTDLHAWHGDWPLPVK: tryptic peptide of yeast ADH, carbamidomethyl cysteine” was tested, and the “Cleaved?” value (PaPepA [6]) was “Digested (Peptides present in control samples but absent in reactions (integrated area <1000) were classified as “digested”)”.
`CSCC[C@H](N)C(=O)Nc1ccc([N+](=O)[O-])cc1` [Met-pNA] was tested, and the Km (PaPepA [1]) was 150 ± 20 µM and the kcat (PaPepA [1]) was 0.084 ± 0.003 s^–1.
With “GVIFYESHGK [tryptic peptide of yeast ADH (MassPREP digestion standard)]” the “Cleaved?” value (PaPepA [6]) was “Digested (Peptides present in control samples but absent in reactions (integrated area <1000) were classified as “digested”)”.
Compound `C[C@H](N)C(=O)Nc1ccc([N+](=O)[O-])cc1` [Ala-pNA] has a Km (PaPepA [1]) of 220 ± 30 µM and a kcat (PaPepA [1]) of 0.037 ± 0.001 s^–1.
“EKDIVGAVLK [tryptic peptide of yeast ADH (MassPREP digestion standard)]” was tested, and the “Cleaved?” value (PaPepA [6]) was “Not digested”.
For `NCCCC[C@H](N)C(=O)Nc1ccc([N+](=O)[O-])cc1` [Lys-pNA], the Km (PaPepA [1]) was 280 ± 40 µM and the kcat (PaPepA [1]) was 0.039 ± 0.002 s^–1.
With “VLGIDGGEGK [tryptic peptide of yeast ADH (MassPREP digestion standard)]” the “Cleaved?” value (PaPepA [6]) was “Digested (Peptides present in control samples but absent in reactions (integrated area <1000) were classified as “digested”)”.
